Measured values: patent US20230085307A1, “PYRIDAZINONE COMPOUND AND HERBICIDE” (NISSAN CHEMICAL CORPORATION, priority 2019, published 2023)

How the values were obtained:
[1] = test system: barnyard grass; assay: Test Example 3: herbicidal effect by foliage application, Wagner pot (Table 18, symbol H); assay type: in vivo, barnyard grass (Echinochloa crus-galli)
Method in brief: (§1)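 Plants were sown in alluvial soil held under 0.1–0.5 cm standing water and grown 14 days in a greenhouse at 25–30 °C. An emulsifiable formulation, water-diluted to the set dose, was then sprayed onto the foliage, and effects were scored three weeks later using previously defined criteria.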

[2] = test system: Chinese sprangletop; assay: Test Example 3: herbicidal effect by foliage application, Wagner pot (Table 18, symbol D); assay type: in vivo, chinese sprangletop (Leptochloa chinensis)
Method in brief: as §1

[3] = test system: rice flat sedge; assay: Test Example 3: herbicidal effect by foliage application, Wagner pot (Table 18, symbol E); assay type: in vivo, rice flat sedge (Cyperus iria)
Method in brief: as §1

[4] = test system: southern crabgrass; assay: Test Example 4: herbicidal effect by soil treatment (Table 19, symbol F); assay type: in vivo, southern crabgrass (Digitaria ciliaris)
Method in brief: (§2)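 Emulsion of test compound, water-diluted to predetermined amount, sprayed on soil after sowing (seed depth ~1.5 cm, sterilized diluvial soil). Greenhouse, 25–30° C. Effect graded at three weeks post-spray.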

[5] = test system: green foxtail; assay: Test Example 4: herbicidal effect by soil treatment (Table 19, symbol G); assay type: in vivo, green foxtail (Setaria viridis)
Method in brief: as §2

[6] = test system: barnyard grass; assay: Test Example 4: herbicidal effect by soil treatment (Table 19, symbol H); assay type: in vivo, barnyard grass (Echinochloa crus-galli)
Method in brief: as §2

[7] = test system: wild oat; assay: Test Example 4: herbicidal effect by soil treatment (Table 19, symbol I); assay type: in vivo, wild oat (Avena fatua)
Method in brief: as §2

[8] = test system: blackgrass; assay: Test Example 4: herbicidal effect by soil treatment (Table 19, symbol J); assay type: in vivo, blackgrass (Alopecurus myosuroides)
Method in brief: as §2

[9] = test system: Italian ryegrass; assay: Test Example 4: herbicidal effect by soil treatment (Table 19, symbol K); assay type: in vivo, Italian ryegrass (Lolium multiflorum)
Method in brief: as §2

[10] = test system: windgrass; assay: Test Example 4: herbicidal effect by soil treatment (Table 19, symbol L); assay type: in vivo, windgrass (Apera spica-venti)
Method in brief: as §2

[11] = test system: velvetleaf; assay: Test Example 4: herbicidal effect by soil treatment (Table 19, symbol M); assay type: in vivo, velvetleaf (Abutilon theophrasti)
Method in brief: as §2

[12] = test system: redroot pigweed; assay: Test Example 4: herbicidal effect by soil treatment (Table 19, symbol N); assay type: in vivo, redroot pigweed (Amaranthus retroflexus)
Method in brief: as §2

[13] = test system: lambsquarters; assay: Test Example 4: herbicidal effect by soil treatment (Table 19, symbol O); assay type: in vivo, lambsquarters (Chenopodium album)
Method in brief: as §2

[14] = test system: chickweed; assay: Test Example 4: herbicidal effect by soil treatment (Table 19, symbol P); assay type: in vivo, common chickweed (Stellaria media)
Method in brief: as §2

[15] = test system: persian speedwell; assay: Test Example 4: herbicidal effect by soil treatment (Table 19, symbol R); assay type: in vivo, Persian speedwell (Veronica persica)
Method in brief: as §2

[16] = test system: southern crabgrass; assay: Test Example 5: herbicidal effect by foliage application, plastic box (Table 20, symbol F); assay type: in vivo, southern crabgrass (Digitaria ciliaris); details: foliage application
Method in brief: (§3)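 Post-emergence foliar test in sterilized diluvial soil. Compound applied as water-diluted emulsion at a predetermined rate to 14-day-old plants; evaluation at three weeks.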

[17] = test system: green foxtail; assay: Test Example 5: herbicidal effect by foliage application, plastic box (Table 20, symbol G); assay type: in vivo, green foxtail (Setaria viridis); details: foliage application
Method in brief: as §3

[18] = test system: barnyard grass; assay: Test Example 5: herbicidal effect by foliage application, plastic box (Table 20, symbol H); assay type: in vivo, barnyard grass (Echinochloa crus-galli); details: foliage application
Method in brief: as §3

[19] = test system: wild oat; assay: Test Example 5: herbicidal effect by foliage application, plastic box (Table 20, symbol I); assay type: in vivo, wild oat (Avena fatua); details: foliage application
Method in brief: as §3

[20] = test system: blackgrass; assay: Test Example 5: herbicidal effect by foliage application, plastic box (Table 20, symbol J); assay type: in vivo, blackgrass (Alopecurus myosuroides); details: foliage application
Method in brief: as §3

[21] = test system: Italian ryegrass; assay: Test Example 5: herbicidal effect by foliage application, plastic box (Table 20, symbol K); assay type: in vivo, Italian ryegrass (Lolium multiflorum); details: foliage application
Method in brief: as §3

[22] = test system: windgrass; assay: Test Example 5: herbicidal effect by foliage application, plastic box (Table 20, symbol L); assay type: in vivo, windgrass (Apera spica-venti); details: foliage application
Method in brief: as §3

[23] = test system: velvetleaf; assay: Test Example 5: herbicidal effect by foliage application, plastic box (Table 20, symbol M); assay type: in vivo, velvetleaf (Abutilon theophrasti); details: foliage application
Method in brief: as §3

[24] = test system: redroot pigweed; assay: Test Example 5: herbicidal effect by foliage application, plastic box (Table 20, symbol N); assay type: in vivo, redroot pigweed (Amaranthus retroflexus); details: foliage application
Method in brief: as §3

[25] = test system: lambsquarters; assay: Test Example 5: herbicidal effect by foliage application, plastic box (Table 20, symbol O); assay type: in vivo, lambsquarters (Chenopodium album); details: foliage application
Method in brief: as §3

[26] = test system: chickweed; assay: Test Example 5: herbicidal effect by foliage application, plastic box (Table 20, symbol P); assay type: in vivo, common chickweed (Stellaria media); details: foliage application
Method in brief: as §3

[27] = test system: persian speedwell; assay: Test Example 5: herbicidal effect by foliage application, plastic box (Table 20, symbol R); assay type: in vivo, Persian speedwell (Veronica persica); details: foliage application
Method in brief: as §3

[28] = AAH 296 g/ha, three weeks after application
[29] = 320 g/ha, evaluated three weeks after application

`Cc1nn(C)c(=O)c(-c2c(-c3cccc(C#N)c3)sc3ccccc23)c1O` [1-123] was tested, and the “herbicidal effect on H (barnyard grass), rating 0-5” value ([1]; 296 g/ha) was 3 (Herbicidal rate of 40% or more and less than 70%), the “herbicidal effect on D (Chinese sprangletop), rating 0-5” value ([2]; 296 g/ha) was 3 (Herbicidal rate of 40% or more and less than 70%) and the “herbicidal effect on E (rice flat sedge), rating 0-5” value ([3]; 296 g/ha) was 3 (Herbicidal rate of 40% or more and less than 70%). For the same molecule, the “F: southern crabgrass, herbicidal effect rating” value ([4]; AAH 296 g/ha) was 0 (Herbicidal rate of 5% or less (almost no effect)), the “G: green foxtail, herbicidal effect rating” value ([5]; AAH 296 g/ha) was 0 (Herbicidal rate of 5% or less (almost no effect)) and the “H: barnyard grass, herbicidal effect rating” value ([6]; AAH 296 g/ha) was 0 (Herbicidal rate of 5% or less (almost no effect)). For the same molecule, the “I: wild oat, herbicidal effect rating” value ([7]; AAH 296 g/ha) was 0 (Herbicidal rate of 5% or less (almost no effect)), the “J: blackgrass, herbicidal effect rating” value ([8]; AAH 296 g/ha) was 0 (Herbicidal rate of 5% or less (almost no effect)) and the “K: Italian ryegrass, herbicidal effect rating” value ([9]; AAH 296 g/ha) was 0 (Herbicidal rate of 5% or less (almost no effect)). The “L: windgrass, herbicidal effect rating” value ([10]; AAH 296 g/ha) was 0 (Herbicidal rate of 5% or less (almost no effect)), the “M: velvetleaf, herbicidal effect rating” value ([11]; AAH 296 g/ha) was 0 (Herbicidal rate of 5% or less (almost no effect)) and the “N: redroot pigweed, herbicidal effect rating” value ([12]; AAH 296 g/ha) was 4 (Herbicidal rate of 70% or more and less than 90%). The “O: lambsquarters, herbicidal effect rating” value ([13]; AAH 296 g/ha) was 4 (Herbicidal rate of 70% or more and less than 90%), the “P: chickweed, herbicidal effect rating” value ([14]; AAH 296 g/ha) was 1 (Herbicidal rate of 5% or more and less than 20%) and the “R: persian speedwell, herbicidal effect rating” value ([15]; AAH 296 g/ha) was 3 (Herbicidal rate of 40% or more and less than 70%). The “F: southern crabgrass, herbicidal effect” value [16, 28] was 0 (Herbicidal rate of 5% or less (almost no effect)), the “G: green foxtail, herbicidal effect” value [17, 28] was 0 (Herbicidal rate of 5% or less (almost no effect)) and the “H: barnyard grass, herbicidal effect” value [18, 28] was 0 (Herbicidal rate of 5% or less (almost no effect)). For the same molecule, the “I: wild oat, herbicidal effect” value [19, 28] was 0 (Herbicidal rate of 5% or less (almost no effect)), the “J: blackgrass, herbicidal effect” value [20, 28] was 0 (Herbicidal rate of 5% or less (almost no effect)) and the “K: Italian ryegrass, herbicidal effect” value [21, 28] was 0 (Herbicidal rate of 5% or less (almost no effect)). For the same molecule, the “L: windgrass, herbicidal effect” value [22, 28] was 0 (Herbicidal rate of 5% or less (almost no effect)), the “M: velvetleaf, herbicidal effect” value [23, 28] was 5 (Herbicidal rate of 90% or more (almost completely withered)) and the “N: redroot pigweed, herbicidal effect” value [24, 28] was 5 (Herbicidal rate of 90% or more (almost completely withered)). For the same molecule, the “O: lambsquarters, herbicidal effect” value [25, 28] was 3 (Herbicidal rate of 40% or more and less than 70%), the “P: chickweed, herbicidal effect” value [26, 28] was 5 (Herbicidal rate of 90% or more (almost completely withered)) and the “R: persian speedwell, herbicidal effect” value [27, 28] was 1 (Herbicidal rate of 5% or more and less than 20%).
With `Cc1nn(C)c(=O)c(-c2c(-c3ccc(OCC#N)cc3)sc3ccc(F)cc23)c1O` [2-066] the “herbicidal effect on H (barnyard grass), rating 0-5” value ([1]; 320 g/ha) was 4 (Herbicidal rate of 70% or more and less than 90%), the “herbicidal effect on D (Chinese sprangletop), rating 0-5” value ([2]; 320 g/ha) was 3 (Herbicidal rate of 40% or more and less than 70%) and the “herbicidal effect on E (rice flat sedge), rating 0-5” value ([3]; 320 g/ha) was 1 (Herbicidal rate of 5% or more and less than 20%). For the same molecule, the “herbicidal effect rating, F: southern crabgrass” value ([4]; 320 g/ha) was 0 (Herbicidal rate of 5% or less (almost no effect)), the “herbicidal effect rating, G: green foxtail” value ([5]; 320 g/ha) was 0 (Herbicidal rate of 5% or less (almost no effect)) and the “herbicidal effect rating, H: barnyard grass” value ([6]; 320 g/ha) was 0 (Herbicidal rate of 5% or less (almost no effect)). The “herbicidal effect rating, I: wild oat” value ([7]; 320 g/ha) was 0 (Herbicidal rate of 5% or less (almost no effect)), the “herbicidal effect rating, J: blackgrass” value ([8]; 320 g/ha) was 0 (Herbicidal rate of 5% or less (almost no effect)) and the “herbicidal effect rating, K: Italian ryegrass” value ([9]; 320 g/ha) was 0 (Herbicidal rate of 5% or less (almost no effect)). For the same molecule, the “herbicidal effect rating, L: windgrass” value ([10]; 320 g/ha) was 0 (Herbicidal rate of 5% or less (almost no effect)), the “herbicidal effect rating, M: velvetleaf” value ([11]; 320 g/ha) was 0 (Herbicidal rate of 5% or less (almost no effect)) and the “herbicidal effect rating, N: redroot pigweed” value ([12]; 320 g/ha) was 0 (Herbicidal rate of 5% or less (almost no effect)). For the same molecule, the “herbicidal effect rating, O: lambsquarters” value ([13]; 320 g/ha) was 0 (Herbicidal rate of 5% or less (almost no effect)), the “herbicidal effect rating, P: chickweed” value ([14]; 320 g/ha) was 4 (Herbicidal rate of 70% or more and less than 90%) and the “herbicidal effect rating, R: persian speedwell” value ([15]; 320 g/ha) was 4 (Herbicidal rate of 70% or more and less than 90%). For the same molecule, the “herbicidal effect on F: southern crabgrass” value [16, 29] was 3 (Herbicidal rate of 40% or more and less than 70%), the “herbicidal effect on G: green foxtail” value [17, 29] was 4 (Herbicidal rate of 70% or more and less than 90%) and the “herbicidal effect on H: barnyard grass” value [18, 29] was 2 (Herbicidal rate of 20% or more and less than 40%). The “herbicidal effect on I: wild oat” value [19, 29] was 0 (Herbicidal rate of 5% or less (almost no effect)), the “herbicidal effect on J: blackgrass” value [20, 29] was 0 (Herbicidal rate of 5% or less (almost no effect)) and the “herbicidal effect on K: Italian ryegrass” value [21, 29] was 1 (Herbicidal rate of 5% or more and less than 20%). For the same molecule, the “herbicidal effect on L: windgrass” value [22, 29] was 0 (Herbicidal rate of 5% or less (almost no effect)), the “herbicidal effect on M: velvetleaf” value [23, 29] was 3 (Herbicidal rate of 40% or more and less than 70%) and the “herbicidal effect on N: redroot pigweed” value [24, 29] was 5 (Herbicidal rate of 90% or more (almost completely withered)). The “herbicidal effect on O: lambsquarters” value [25, 29] was 4 (Herbicidal rate of 70% or more and less than 90%), the “herbicidal effect on P: chickweed” value [26, 29] was 5 (Herbicidal rate of 90% or more (almost completely withered)) and the “herbicidal effect on R: persian speedwell” value [27, 29] was 5 (Herbicidal rate of 90% or more (almost completely withered)).
